Each block holds one compound with its values, some of them ahead of it.
How the values were obtained:
[1] = target: Mitogen-activated protein kinase kinase kinase kinase 5 (Homo sapiens) (UniProt Q9Y4K4); experiment: Selectivity interaction (Kinase panel (Invitrogen)) EUB0000639a MAP4K5; settings: at 200 nM
[2] = target: Calcium/calmodulin-dependent protein kinase type 1 (Homo sapiens) (UniProt Q14012); experiment: Selectivity interaction (KinomeScan (DiscoverX)) EUB0000655a CAMK1; settings: at 10 µM
[3] = target: T1, cGMP-dependent protein kinase 1 (Homo sapiens) (UniProt Q13976); experiment: Selectivity interaction (KinomeScan (DiscoverX)) EUB0000655a PRKG1; settings: at 10 µM
T1 sequence (whole entry): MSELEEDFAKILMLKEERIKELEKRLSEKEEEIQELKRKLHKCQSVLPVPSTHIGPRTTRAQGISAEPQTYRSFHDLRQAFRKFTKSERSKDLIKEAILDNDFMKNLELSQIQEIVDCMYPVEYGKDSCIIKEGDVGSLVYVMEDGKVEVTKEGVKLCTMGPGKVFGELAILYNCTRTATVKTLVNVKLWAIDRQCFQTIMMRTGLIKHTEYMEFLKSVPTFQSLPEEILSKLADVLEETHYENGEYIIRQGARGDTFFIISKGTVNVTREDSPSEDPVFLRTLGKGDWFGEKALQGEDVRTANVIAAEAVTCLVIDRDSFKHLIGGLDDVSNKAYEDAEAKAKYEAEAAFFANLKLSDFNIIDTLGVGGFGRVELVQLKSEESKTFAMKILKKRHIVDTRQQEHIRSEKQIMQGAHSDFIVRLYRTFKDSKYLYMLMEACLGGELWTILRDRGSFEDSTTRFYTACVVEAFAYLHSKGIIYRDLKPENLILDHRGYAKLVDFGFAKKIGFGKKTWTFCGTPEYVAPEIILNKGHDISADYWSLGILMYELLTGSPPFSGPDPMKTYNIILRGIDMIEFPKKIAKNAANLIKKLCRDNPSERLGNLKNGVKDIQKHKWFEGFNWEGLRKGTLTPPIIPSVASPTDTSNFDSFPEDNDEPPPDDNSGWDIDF

[4] = target: T2, Mitogen-activated protein kinase kinase kinase 3 (Homo sapiens) (UniProt Q99759); experiment: Selectivity interaction (KinomeScan (DiscoverX)) EUB0000607a MAP3K3; settings: at 10 µM
T2 sequence (whole entry): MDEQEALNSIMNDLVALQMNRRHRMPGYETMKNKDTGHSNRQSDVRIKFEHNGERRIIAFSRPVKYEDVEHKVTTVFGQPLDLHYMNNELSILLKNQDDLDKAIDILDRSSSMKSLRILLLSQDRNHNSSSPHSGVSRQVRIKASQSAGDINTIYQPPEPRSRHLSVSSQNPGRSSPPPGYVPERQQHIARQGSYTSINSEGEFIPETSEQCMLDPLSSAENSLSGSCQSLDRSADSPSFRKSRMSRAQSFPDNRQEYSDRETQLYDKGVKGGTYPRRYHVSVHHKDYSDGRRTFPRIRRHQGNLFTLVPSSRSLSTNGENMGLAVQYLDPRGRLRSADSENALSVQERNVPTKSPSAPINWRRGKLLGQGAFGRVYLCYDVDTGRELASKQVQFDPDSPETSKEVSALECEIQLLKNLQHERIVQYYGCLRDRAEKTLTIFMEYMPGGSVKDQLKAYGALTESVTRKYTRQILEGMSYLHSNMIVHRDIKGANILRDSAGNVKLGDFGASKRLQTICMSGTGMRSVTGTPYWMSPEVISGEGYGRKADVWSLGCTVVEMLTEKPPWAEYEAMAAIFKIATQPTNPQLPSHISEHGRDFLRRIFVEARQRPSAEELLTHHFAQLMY

[5] = target: T3, Bone morphogenetic protein receptor type-2 (Homo sapiens) (UniProt Q13873); experiment: Selectivity interaction (KinomeScan (DiscoverX)) EUB0000666a BMPR2; settings: at 10 µM
T3 sequence (whole entry): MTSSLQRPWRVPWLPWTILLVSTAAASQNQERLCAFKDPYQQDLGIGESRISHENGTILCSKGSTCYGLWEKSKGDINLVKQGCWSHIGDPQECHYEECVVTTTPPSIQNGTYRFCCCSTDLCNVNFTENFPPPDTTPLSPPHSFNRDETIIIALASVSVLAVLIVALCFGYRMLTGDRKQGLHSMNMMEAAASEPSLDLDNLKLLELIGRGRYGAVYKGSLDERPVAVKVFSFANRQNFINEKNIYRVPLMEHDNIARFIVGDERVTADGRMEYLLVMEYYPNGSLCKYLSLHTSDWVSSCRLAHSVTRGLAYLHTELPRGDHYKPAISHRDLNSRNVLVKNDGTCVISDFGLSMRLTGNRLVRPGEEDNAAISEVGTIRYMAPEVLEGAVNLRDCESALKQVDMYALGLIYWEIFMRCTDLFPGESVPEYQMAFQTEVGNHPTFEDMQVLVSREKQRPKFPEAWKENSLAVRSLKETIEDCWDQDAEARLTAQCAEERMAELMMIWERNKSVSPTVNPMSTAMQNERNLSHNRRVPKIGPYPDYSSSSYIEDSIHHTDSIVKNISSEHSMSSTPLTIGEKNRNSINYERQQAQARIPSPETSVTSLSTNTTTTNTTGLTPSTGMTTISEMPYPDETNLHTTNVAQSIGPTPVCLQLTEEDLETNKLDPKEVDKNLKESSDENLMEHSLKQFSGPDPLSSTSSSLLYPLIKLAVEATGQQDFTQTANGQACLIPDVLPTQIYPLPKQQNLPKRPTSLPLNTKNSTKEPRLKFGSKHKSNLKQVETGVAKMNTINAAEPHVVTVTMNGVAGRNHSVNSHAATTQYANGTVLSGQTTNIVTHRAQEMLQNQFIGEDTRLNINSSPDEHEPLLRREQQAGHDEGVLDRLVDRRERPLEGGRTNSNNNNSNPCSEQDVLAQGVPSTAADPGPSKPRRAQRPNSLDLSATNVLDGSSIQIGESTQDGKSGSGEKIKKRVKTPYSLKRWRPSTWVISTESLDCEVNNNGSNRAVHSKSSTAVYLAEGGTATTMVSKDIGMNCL

Sequence of Calcium/calmodulin-dependent protein kinase type 1 (Homo sapiens) (Q14012 whole entry, looked up): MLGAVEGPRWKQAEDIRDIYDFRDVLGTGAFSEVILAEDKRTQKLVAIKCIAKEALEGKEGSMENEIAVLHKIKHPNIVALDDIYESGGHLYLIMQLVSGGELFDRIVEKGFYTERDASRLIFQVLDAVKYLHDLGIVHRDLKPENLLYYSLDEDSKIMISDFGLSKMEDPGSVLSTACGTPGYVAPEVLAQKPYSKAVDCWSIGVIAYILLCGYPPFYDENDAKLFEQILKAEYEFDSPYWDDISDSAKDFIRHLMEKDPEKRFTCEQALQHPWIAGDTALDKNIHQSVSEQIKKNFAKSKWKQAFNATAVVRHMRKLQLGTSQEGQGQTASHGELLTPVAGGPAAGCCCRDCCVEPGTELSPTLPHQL
Sequence of Mitogen-activated protein kinase kinase kinase kinase 5 (Homo sapiens) (Q9Y4K4 whole entry, looked up): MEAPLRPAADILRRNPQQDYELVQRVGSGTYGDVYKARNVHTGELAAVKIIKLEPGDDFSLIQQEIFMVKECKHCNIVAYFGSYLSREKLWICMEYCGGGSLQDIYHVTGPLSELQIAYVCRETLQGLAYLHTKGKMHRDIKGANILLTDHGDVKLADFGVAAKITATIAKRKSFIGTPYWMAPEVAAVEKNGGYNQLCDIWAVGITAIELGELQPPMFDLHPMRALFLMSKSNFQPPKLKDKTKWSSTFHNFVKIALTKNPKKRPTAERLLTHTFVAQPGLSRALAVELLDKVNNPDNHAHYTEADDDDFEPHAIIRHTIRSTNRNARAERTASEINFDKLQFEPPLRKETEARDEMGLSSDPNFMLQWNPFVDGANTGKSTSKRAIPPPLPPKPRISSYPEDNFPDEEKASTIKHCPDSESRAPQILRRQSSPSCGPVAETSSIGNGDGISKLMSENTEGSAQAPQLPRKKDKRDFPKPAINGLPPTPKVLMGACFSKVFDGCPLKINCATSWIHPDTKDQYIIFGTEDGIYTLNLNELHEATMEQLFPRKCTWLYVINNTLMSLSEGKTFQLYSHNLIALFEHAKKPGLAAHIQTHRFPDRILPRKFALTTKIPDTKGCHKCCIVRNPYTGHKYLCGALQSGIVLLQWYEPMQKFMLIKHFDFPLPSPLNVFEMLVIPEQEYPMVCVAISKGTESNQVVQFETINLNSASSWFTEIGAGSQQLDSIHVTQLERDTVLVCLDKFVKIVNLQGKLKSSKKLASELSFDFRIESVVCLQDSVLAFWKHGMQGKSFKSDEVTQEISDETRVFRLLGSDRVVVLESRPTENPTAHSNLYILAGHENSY

% of inhibition [1]: 10%
Structure (SMILES): CC[C@@H]1[C@H](F)C(=O)N[C@@H]1COc1nccc2cc(C(N)=O)c(OC)cc12 [ZIMLOVISERTIB]

Structure (SMILES): CN(C)CCOc1ccc(-c2nc(-c3ccncc3)c(-c3ccc4c(c3)CC/C4=N\O)[nH]2)cc1
% of control [2]: 93%
% of control [3]: 89%

Structure (SMILES): CNC(=O)Nc1ccc(-c2nc(N3CC4CCC(C3)O4)c3cnn(C4CCC5(CC4)OCCO5)c3n2)cc1
% of control [4]: 100%

Structure (SMILES): O=C(NOC[C@H](O)CO)c1ccc(F)c(F)c1Nc1ccc(I)cc1F
% of control [5]: 81%
